{"source": "the OligoGym collection", "note": "HELM strings list units from the 5' end as sugar, base in round brackets, then linkage (d deoxyribose, r ribose, m 2'-O-methyl, p phosphodiester). Strings are as the collection lists them, not checked against the first reports. ss, as = sense and antisense strand; [s4r] = 4'-thioribose; [fl2r] = 2'-fluoro; also: test system not given here"}
{"settings": "siRNA", "units": {"target mRNA knockdown": "%"}}
{"substance": "RNA1{r(C)p.r(G)p.r(G)p.r(A)p.r(U)p.r(C)p.m(U)p.r(A)p.m(C)p.r(A)p.r(C)p.r(C)p.r(U)p.r(U)p.m(C)p.r(A)p.r(A)p.r(G)p.r(A)p.r(T)p.r(T)}|RNA2{r(U)p.r(C)p.r(U)p.m(U)p.r(G)p.r(A)p.r(A)p.r(G)p.r(G)p.m(U)p.r(G)p.m(U)p.r(A)p.r(G)p.r(A)p.r(U)p.r(C)p.r(C)p.r(G)p.r(T)p.r(T)}$$$RNA1{StrandType:ss}|RNA2{StrandType:as}$", "target mRNA knockdown": 68}
{"substance": "RNA1{r(C)p.r(G)p.r(G)p.r(A)p.r(U)p.r(C)p.m(U)p.r(A)p.r(C)p.r(A)p.r(C)p.r(C)p.r(U)p.r(U)p.r(C)p.m(A)p.r(A)p.r(G)p.r(A)p.r(T)p.r(T)}|RNA2{r(U)p.r(C)p.r(U)p.m(U)p.r(G)p.r(A)p.r(A)p.r(G)p.r(G)p.m(U)p.r(G)p.m(U)p.r(A)p.r(G)p.r(A)p.r(U)p.r(C)p.r(C)p.r(G)p.r(T)p.r(T)}$$$RNA1{StrandType:ss}|RNA2{StrandType:as}$", "target mRNA knockdown": 42}
{"substance": "RNA1{r(C)p.r(G)p.r(G)p.r(A)p.r(U)p.r(C)p.m(U)p.r(A)p.r(C)p.r(A)p.r(C)p.r(C)p.r(U)p.r(U)p.r(C)p.r(A)p.r(A)p.r(G)p.r(A)p.r(T)p.r(T)}|RNA2{r(U)p.r(C)p.r(U)p.r(U)p.r(G)p.r(A)p.r(A)p.r(G)p.r(G)p.r(U)p.r(G)p.m(U)p.r(A)p.r(G)p.r(A)p.r(U)p.r(C)p.r(C)p.r(G)p.r(T)p.r(T)}$$$RNA1{StrandType:ss}|RNA2{StrandType:as}$", "target mRNA knockdown": 69}
{"substance": "RNA1{r(C)p.r(G)p.r(G)p.r(G)p.[fl2r](U)p.[fl2r](A)p.r(C)p.r(G)p.r(A)p.r(G)p.r(C)p.r(C)p.r(G)p.r(G)p.r(A)p.r(A)p.r(C)p.r(C)p.r(U)p.r(T)p.r(T)}|RNA2{r(A)p.r(G)p.r(G)p.r(U)p.r(U)p.r(C)p.r(C)p.r(G)p.r(G)p.r(C)p.r(U)p.r(C)p.r(G)p.[fl2r](U)p.r(A)p.r(C)p.r(C)p.r(C)p.r(G)p.r(T)p.r(T)}$$$RNA1{StrandType:ss}|RNA2{StrandType:as}$", "target mRNA knockdown": 68}
{"substance": "RNA1{r(C)p.r(G)p.r(G)p.r(G)p.r(U)p.r(A)p.r(C)p.r(G)p.r(A)p.r(G)p.r(C)p.r(C)p.r(G)p.r(G)p.r(A)p.r(A)p.r(C)p.r(C)p.r(U)p.r(T)p.r(T)}|RNA2{r(A)p.r(G)p.r(G)p.r(U)p.r(U)p.r(C)p.r(C)p.r(G)p.r(G)p.r(C)p.r(U)p.r(C)p.r(G)p.[fl2r](U)p.r(A)p.r(C)p.r(C)p.r(C)p.r(G)p.r(T)p.r(T)}$$$RNA1{StrandType:ss}|RNA2{StrandType:as}$", "target mRNA knockdown": 69}
{"substance": "RNA1{r(C)p.r(G)p.r(U)p.r(A)p.r(C)p.r(G)p.[s4r](C)p.[s4r](G)p.[s4r](G)p.[s4r](A)p.[s4r](A)p.[s4r](U)p.[s4r](A)p.r(C)p.r(U)p.r(U)p.r(C)p.r(G)p.r(A)p.r(T)p.r(T)}|RNA2{r(U)p.r(C)p.r(G)p.r(A)p.r(A)p.r(G)p.r(U)p.r(A)p.r(U)p.r(U)p.r(C)p.r(C)p.r(G)p.r(C)p.r(G)p.r(U)p.r(A)p.r(C)p.r(G)p.r(T)p.r(T)}$$$RNA1{StrandType:ss}|RNA2{StrandType:as}$", "target mRNA knockdown": 87.4}
{"substance": "RNA1{r(C)p.r(G)p.r(U)p.r(A)p.r(C)p.r(G)p.r(C)p.r(G)p.r(G)p.r(A)p.r(A)p.r(U)p.r(A)p.[s4r](C)p.[s4r](U)p.[s4r](U)p.[s4r](C)p.[s4r](G)p.[s4r](A)p.r(T)p.r(T)}|RNA2{[s4r](U)p.[s4r](C)p.[s4r](G)p.[s4r](A)p.[s4r](A)p.[s4r](G)p.r(U)p.r(A)p.r(U)p.r(U)p.r(C)p.r(C)p.r(G)p.r(C)p.r(G)p.r(U)p.r(A)p.r(C)p.r(G)p.r(T)p.r(T)}$$$RNA1{StrandType:ss}|RNA2{StrandType:as}$", "target mRNA knockdown": 10.9}
{"substance": "RNA1{r(C)p.r(G)p.r(U)p.r(A)p.r(C)p.r(G)p.r(C)p.r(G)p.r(G)p.r(A)p.r(A)p.r(U)p.r(A)p.[s4r](C)p.[s4r](U)p.[s4r](U)p.[s4r](C)p.[s4r](G)p.[s4r](A)p.r(T)p.r(T)}|RNA2{r(U)p.r(C)p.r(G)p.r(A)p.r(A)p.r(G)p.r(U)p.r(A)p.r(U)p.r(U)p.r(C)p.r(C)p.r(G)p.r(C)p.r(G)p.r(U)p.r(A)p.r(C)p.r(G)p.r(T)p.r(T)}$$$RNA1{StrandType:ss}|RNA2{StrandType:as}$", "target mRNA knockdown": 93.8}
{"substance": "RNA1{r(C)p.r(G)p.r(U)p.r(A)p.r(C)p.r(G)p.r(C)p.r(G)p.r(G)p.r(A)p.r(A)p.r(U)p.r(A)p.m(C)p.m(U)p.m(U)p.m(C)p.m(G)p.m(A)p.r(T)p.r(T)}|RNA2{r(U)p.r(C)p.r(G)p.r(A)p.r(A)p.r(G)p.r(U)p.r(A)p.r(U)p.r(U)p.r(C)p.r(C)p.r(G)p.r(C)p.r(G)p.r(U)p.r(A)p.r(C)p.r(G)p.r(T)p.r(T)}$$$RNA1{StrandType:ss}|RNA2{StrandType:as}$", "target mRNA knockdown": 94.2}
{"substance": "RNA1{r(C)p.r(G)p.r(U)p.r(A)p.r(C)p.r(G)p.r(C)p.r(G)p.r(G)p.r(A)p.r(A)p.r(U)p.r(A)p.r(C)p.r(U)p.[s4r](U)p.[s4r](C)p.[s4r](G)p.[s4r](A)p.r(T)p.r(T)}|RNA2{[s4r](U)p.[s4r](C)p.[s4r](G)p.[s4r](A)p.r(A)p.r(G)p.r(U)p.r(A)p.r(U)p.r(U)p.r(C)p.r(C)p.r(G)p.r(C)p.r(G)p.r(U)p.r(A)p.r(C)p.r(G)p.r(T)p.r(T)}$$$RNA1{StrandType:ss}|RNA2{StrandType:as}$", "target mRNA knockdown": 35.1}
{"substance": "RNA1{r(C)p.r(G)p.r(U)p.r(A)p.r(C)p.r(G)p.r(C)p.r(G)p.r(G)p.r(A)p.r(A)p.r(U)p.r(A)p.r(C)p.r(U)p.[s4r](U)p.[s4r](C)p.[s4r](G)p.[s4r](A)p.r(T)p.r(T)}|RNA2{r(U)p.r(C)p.r(G)p.r(A)p.r(A)p.r(G)p.r(U)p.r(A)p.r(U)p.r(U)p.r(C)p.r(C)p.r(G)p.r(C)p.r(G)p.[s4r](U)p.[s4r](A)p.[s4r](C)p.[s4r](G)p.r(T)p.r(T)}$$$RNA1{StrandType:ss}|RNA2{StrandType:as}$", "target mRNA knockdown": 83.4}
{"substance": "RNA1{r(C)p.r(G)p.r(U)p.r(A)p.r(C)p.r(G)p.r(C)p.r(G)p.r(G)p.r(A)p.r(A)p.r(U)p.r(A)p.r(C)p.r(U)p.[s4r](U)p.[s4r](C)p.[s4r](G)p.[s4r](A)p.r(T)p.r(T)}|RNA2{r(U)p.r(C)p.r(G)p.r(A)p.r(A)p.r(G)p.r(U)p.r(A)p.r(U)p.r(U)p.r(C)p.r(C)p.r(G)p.r(C)p.r(G)p.r(U)p.r(A)p.r(C)p.r(G)p.r(T)p.r(T)}$$$RNA1{StrandType:ss}|RNA2{StrandType:as}$", "target mRNA knockdown": 94.3}
{"substance": "RNA1{r(C)p.r(G)p.r(U)p.r(A)p.r(C)p.r(G)p.r(C)p.r(G)p.r(G)p.r(A)p.r(A)p.r(U)p.r(A)p.r(C)p.r(U)p.r(U)p.r(C)p.[s4r](G)p.[s4r](A)p.r(T)p.r(T)}|RNA2{[s4r](U)p.[s4r](C)p.r(G)p.r(A)p.r(A)p.r(G)p.r(U)p.r(A)p.r(U)p.r(U)p.r(C)p.r(C)p.r(G)p.r(C)p.r(G)p.r(U)p.r(A)p.r(C)p.r(G)p.r(T)p.r(T)}$$$RNA1{StrandType:ss}|RNA2{StrandType:as}$", "target mRNA knockdown": 91.2}
{"substance": "RNA1{r(C)p.r(G)p.r(U)p.r(A)p.r(C)p.r(G)p.r(C)p.r(G)p.r(G)p.r(A)p.r(A)p.r(U)p.r(A)p.r(C)p.r(U)p.r(U)p.r(C)p.[s4r](G)p.[s4r](A)p.r(T)p.r(T)}|RNA2{r(U)p.r(C)p.r(G)p.r(A)p.r(A)p.r(G)p.r(U)p.r(A)p.r(U)p.r(U)p.r(C)p.r(C)p.r(G)p.r(C)p.r(G)p.r(U)p.r(A)p.r(C)p.r(G)p.r(T)p.r(T)}$$$RNA1{StrandType:ss}|RNA2{StrandType:as}$", "target mRNA knockdown": 95.4}
{"substance": "RNA1{r(C)p.r(G)p.r(U)p.r(A)p.r(C)p.r(G)p.r(C)p.r(G)p.r(G)p.r(A)p.r(A)p.r(U)p.r(A)p.r(C)p.r(U)p.r(U)p.r(C)p.r(G)p.r(A)p.r(T)p.r(T)}|RNA2{[s4r](U)p.[s4r](C)p.[s4r](G)p.[s4r](A)p.[s4r](A)p.[s4r](G)p.[s4r](U)p.[s4r](A)p.[s4r](U)p.[s4r](U)p.[s4r](C)p.[s4r](C)p.[s4r](G)p.[s4r](C)p.[s4r](G)p.[s4r](U)p.[s4r](A)p.[s4r](C)p.[s4r](G)p.r(T)p.r(T)}$$$RNA1{StrandType:ss}|RNA2{StrandType:as}$", "target mRNA knockdown": 16.6}
{"substance": "RNA1{r(C)p.r(G)p.r(U)p.r(A)p.r(C)p.r(G)p.r(C)p.r(G)p.r(G)p.r(A)p.r(A)p.r(U)p.r(A)p.r(C)p.r(U)p.r(U)p.r(C)p.r(G)p.r(A)p.r(T)p.r(T)}|RNA2{[s4r](U)p.[s4r](C)p.[s4r](G)p.[s4r](A)p.[s4r](A)p.[s4r](G)p.r(U)p.r(A)p.r(U)p.r(U)p.r(C)p.r(C)p.r(G)p.[s4r](C)p.[s4r](G)p.[s4r](U)p.[s4r](A)p.[s4r](C)p.[s4r](G)p.r(T)p.r(T)}$$$RNA1{StrandType:ss}|RNA2{StrandType:as}$", "target mRNA knockdown": 22.8}
{"substance": "RNA1{r(C)p.r(G)p.r(U)p.r(A)p.r(C)p.r(G)p.r(C)p.r(G)p.r(G)p.r(A)p.r(A)p.r(U)p.r(A)p.r(C)p.r(U)p.r(U)p.r(C)p.r(G)p.r(A)p.r(T)p.r(T)}|RNA2{[s4r](U)p.[s4r](C)p.[s4r](G)p.[s4r](A)p.[s4r](A)p.[s4r](G)p.r(U)p.r(A)p.r(U)p.r(U)p.r(C)p.r(C)p.r(G)p.r(C)p.r(G)p.r(U)p.r(A)p.r(C)p.r(G)p.r(T)p.r(T)}$$$RNA1{StrandType:ss}|RNA2{StrandType:as}$", "target mRNA knockdown": 70.9}
{"substance": "RNA1{r(C)p.r(G)p.r(U)p.r(A)p.r(C)p.r(G)p.r(C)p.r(G)p.r(G)p.r(A)p.r(A)p.r(U)p.r(A)p.r(C)p.r(U)p.r(U)p.r(C)p.r(G)p.r(A)p.r(T)p.r(T)}|RNA2{[s4r](U)p.[s4r](C)p.[s4r](G)p.[s4r](A)p.r(A)p.r(G)p.r(U)p.r(A)p.r(U)p.r(U)p.r(C)p.r(C)p.r(G)p.r(C)p.r(G)p.[s4r](U)p.[s4r](A)p.[s4r](C)p.[s4r](G)p.r(T)p.r(T)}$$$RNA1{StrandType:ss}|RNA2{StrandType:as}$", "target mRNA knockdown": 20}
{"substance": "RNA1{r(C)p.r(G)p.r(U)p.r(A)p.r(C)p.r(G)p.r(C)p.r(G)p.r(G)p.r(A)p.r(A)p.r(U)p.r(A)p.r(C)p.r(U)p.r(U)p.r(C)p.r(G)p.r(A)p.r(T)p.r(T)}|RNA2{[s4r](U)p.[s4r](C)p.[s4r](G)p.[s4r](A)p.r(A)p.r(G)p.r(U)p.r(A)p.r(U)p.r(U)p.r(C)p.r(C)p.r(G)p.r(C)p.r(G)p.r(U)p.r(A)p.r(C)p.r(G)p.r(T)p.r(T)}$$$RNA1{StrandType:ss}|RNA2{StrandType:as}$", "target mRNA knockdown": 76.7}
